How the values were obtained:
[1] = tested on: HIV-1 mutant strain Y188L; test: microbe, parasite or virus in culture; format: cell-based; conditions: Human immunodeficiency virus 1, MT4, read-out: EC50 Y188L
[2] = tested on: HIV-1 mutant strain Y181C; test: microbe, parasite or virus in culture; format: cell-based; conditions: Human immunodeficiency virus 1, MT4, read-out: EC50 Y181C
[3] = tested on: HIV-1 mutant strain E138K; test: microbe, parasite or virus in culture; format: cell-based; conditions: Human immunodeficiency virus 1, MT4, read-out: EC50 E138K
[4] = tested on: HIV-1 mutant strain K103N; test: microbe, parasite or virus in culture; format: cell-based; conditions: Human immunodeficiency virus 1, MT4, read-out: EC50 K103N
[5] = tested on: HIV-1 mutant strain F227L + V106A; test: microbe, parasite or virus in culture; format: cell-based; conditions: Human immunodeficiency virus 1, MT4, read-out: EC50 F227L + V106A
HIV-1 WT strain (IIIB) = test: Anti-HIV activity against WT HIV-1; conditions: WT HIV-1 IIIB
[6] = Cytotoxicity in mock-infected MT-4 cells, MTT method; format: cell-based; conditions: human, mock-infected MT-4 cells, CC50, mock-infected MT-4 cells
[7] = tested on: HIV-1 mutant strain RES056 (K103N + Y181C); test: microbe, parasite or virus in culture; format: cell-based; conditions: Human immunodeficiency virus 1, MT4, read-out: EC50 RES056
[8] = tested on: HIV-1 mutant strain L100I; test: microbe, parasite or virus in culture; format: cell-based; conditions: Human immunodeficiency virus 1, MT4, read-out: EC50 L100I

| Structure (SMILES) | EC50 [1] [nM] | EC50 [2] [nM] | EC50 [3] [nM] | EC50 [4] [nM] | EC50 [5] [nM] | SI IIIB (CC50/EC50 ratio) (HIV-1 WT strain (IIIB)) | CC50 at 5 days [6] [µM] | EC50 [7] [µM] | EC50 [8] [nM] |
| --- | --- | --- | --- | --- | --- | --- | --- | --- | --- |
| Cc1ccc(S(=O)(=O)NCCCCNC(=O)c2[nH]c3ccc(Cl)cc3c2S(=O)(=O)c2cc(C)cc(C)c2)cc1 [R1L4, 5-Chloro-3-((3,5-dimethylphenyl)sulfonyl)-N-(4-((4-methylphenyl)sulfonamido)butyl)-1H-indole-2-carboxamide] | 1520 ± 270 | 310 ± 68 | 130 ± 85 | 310 ± 68 | 310 ± 34 | 3232 | 103 ± 59.8 | > 103 | 160 ± 85 |
| COc1ccc(S(=O)(=O)NCCCNC(=O)c2[nH]c3ccc(Cl)cc3c2S(=O)(=O)c2cc(C)cc(C)c2)cc1 [R2L3, 5-Chloro-3-((3,5-dimethylphenyl)sulfonyl)-N-(3-((4-methoxyphenyl)sulfonamido)propyl)-1H-indole-2-carboxamide] | 5980 ± 310 | 830 ± 68 | 250 | 660 ± 85 | 970 ± 51 | 4354 | 163 ± 15.3 | > 163 | 320 |
| Cc1cc(C)cc(S(=O)(=O)c2c(C(=O)NCCNS(=O)(=O)c3cccs3)[nH]c3ccc(Cl)cc23)c1 [R8L2, 5-Chloro-3-((3,5-dimethylphenyl)sulfonyl)-N-(2-(thiophene-2-sulfonamido)ethyl)-1H-indole-2-carboxamide] | 6240 ± 650 | 1000 ± 91 | 1200 ± 18 | 1180 ± 91 | 1810 ± 180 | 1558 | 161 ± 50.3 | 4.63 ± 1.54 | 800 ± 94 |
| Cc1cc(C)cc(S(=O)(=O)c2c(C(=O)NCCCCNS(=O)(=O)c3cccs3)[nH]c3ccc(Cl)cc23)c1 [R8L4, 5-Chloro-3-((3,5-dimethylphenyl)sulfonyl)-N-(4-(thiophene-2-sulfonamido)butyl)-1H-indole-2-carboxamide] | 1050 ± 35 | 540 | 190 ± 17 | 470 ± 69 | 360 ± 35 | 1953 | 86.5 ± 11.8 | > 86.5 | 130 ± 59 |
| Cc1cc(C)cc(S(=O)(=O)c2c(C(=O)NCCCNS(=O)(=O)c3cccs3)[nH]c3ccc(Cl)cc23)c1 [R8L3, 5-Chloro-3-((3,5-dimethylphenyl)sulfonyl)-N-(3-(thiophene-2-sulfonamido)propyl)-1H-indole-2-carboxamide] | 3540 ± 340 | 1060 ± 18 | 280 ± 18 | 1030 ± 190 | 1650 ± 270 | 2105 | 121 ± 33.5 | 5.38 ± 1.29 | 500 ± 140 |
| Cc1cc(C)cc(S(=O)(=O)c2c(C(=O)NCCNS(=O)(=O)c3ccc(Cl)cc3)[nH]c3ccc(Cl)cc23)c1 [R7L2, 5-Chloro-3-((3,5-dimethylphenyl)sulfonyl)-N-(2-((4-chlorophenyl)sulfonamido)ethyl)-1H-indole-2-carboxamide] | 2660 ± 170 | 310 ± 160 | 360 ± 17 | 220 | 1040 ± 350 | 13,010 | 175 ± 42.8 | 3.09 ± 0.5 | 170 ± 41 |
| Cc1cc(C)cc(S(=O)(=O)c2c(C(=O)NCCNS(=O)(=O)c3ccccc3)[nH]c3ccc(Cl)cc23)c1 [R9L2, 5-Chloro-3-((3,5-dimethylphenyl)sulfonyl)-N-(2-(phenylsulfonamido)ethyl)-1H-indole-2-carboxamide] | 2810 ± 290 | 260 ± 73 | 220 ± 73 | 240 ± 37 | 1120 ± 350 | 13,509 | 185 ± 8.31 | 3.14 ± 0.11 | 260 ± 110 |
| Cc1ccnc2c1NC(=O)c1cccnc1N2C1CC1 [NVP, Nevirapine, reference compound] | > 9520 | > 9520 | 95 ± 31 | 5330 ± 1070 | > 9520 | >114 | > 15 | > 9.52 | 1260 ± 600 |
| O=C1Nc2ccc(Cl)cc2[C@@](C#CC2CC2)(C(F)(F)F)O1 [EFV, Efavirenz, reference compound] | 270 ± 16 | 7 ± 2 | 7 ± 1 | 100 ± 19 | 270 ± 48 | – | > 6.34 | 0.48 ± 0.19 | 32 ± 6 |

Reference: paper PMC10326263 (Acta Pharmaceutica Sinica. B, 2023)
